Entries after “also recorded” stand apart in the source; their conditions may differ.
Tested on: human primary cell-based systems
Assay: BioMAP panel of 12 systems
Details: for Number of annotated readouts with activity / Overt cytotoxicity on primary human cell types: 12 tissue and disease models; for Immunomodulatory activities: Decreased Activity / Inflammation-related activities: Decreased Activity: PF-06651600 200-5400 nM
Excerpt: The BioMAP systems consist of human primary cell-based systems designed to model different aspects of the human body in an in vitro format. The 12 systems tested characterized the test compounds across a broad set of systems modeling various human disease states. BioMAP systems were constructed with one or more primary cell types from healthy human donors, with stimuli (such as cytokines or growth factors) added to capture relevant signaling networks that naturally occur in human tissue or pathological conditions. Vascular biology was modeled in both a Th1 (3C system) and a Th2 (4H system) inflammatory environment, as well as in a Th1 inflammatory state specific to arterial smooth muscle cells (CASM3C system). Additional systems recapitulated aspects of the systemic immune response that included monocyte-driven Th1 inflammation (LPS system) or T cell stimulation (SAg system), chronic Th1 inflammation driven by macrophage activation (IMphg system) and the T cell-dependent activation of B cells that occurs in germinal centers (BT system). The BE3C system (Th1) and the BF4T system (Th2) represented airway inflammation of the lung, while the MyoF system modeled myofibroblast-lung tissue remodeling. Lastly, skin biology was addressed in the KF3CT system modeled Th1 cutaneous inflammation and the HDF3CGF system modeled wound healing.
All cells were from a pool of multiple donors (n=2-6), commercially purchased and handled according to the recommendations of the manufacturers. Human blood derived CD14+ monocytes were differentiated into macrophages in vitro before being added to the IMphg system. Abbreviations were used as follows: human umbilical vein endothelial cells (HUVEC), peripheral blood mononuclear cells (PBMC), human neonatal dermal fibroblasts (HDFn), B cell receptor (BCR), T cell receptor (TCR) and toll-like receptor (TLR). Cell types and stimuli used in each system were as follows:
3C system [HUVEC+(IL-1β, TNFα and IFNγ)]; 4H system [HUVEC+(IL-4 and histamine)]; LPS system [PBMC and HUVEC+LPS (TLR4 ligand)]; SAg system [PBMC and HUVEC+T cell receptor (TCR) ligands]; BT system [CD19+B cells and PBMC+(α-IgM and TCR ligands)]; BF4T system [bronchial epithelial cells and HDFn+(TNFα and IL-4)]; BE3C system [bronchial epithelial cells+(IL-1p, TNFα and IFNγ)]; CASM3C system [coronary artery smooth muscle cells+(IL-1p, TNFα and IFNγ)]; HDF3CGF system [HDFn+(IL-1β, TNFα, IFNγ, EGF, bFGF and PDGF-BB)]; KF3CT system [keratinocytes and HDFn+(IL-1β, TNFα and IFNγ)]; MyoF system [differentiated lung myofibroblasts+(TNFα and TGFβ)]; and IMphg system [HUVEC and M1 macrophages+Zymosan (TLR2 ligand)].
Systems were derived from either single cell types or co-culture systems. Adherent cell types were cultured in 96 or 384-well plates until confluence, followed by the addition of PBMC (SAg and LPS systems). The BT system consisted of CD19+B cells co-cultured with PBMC and stimulated with a BCR activator and low levels of TCR stimulation. Test agents were prepared in DMSO (final concentration <0.1%) and were added 1 hour before stimulation, and remained in culture for 24 hours or as otherwise indicated (48-hrs, MyoF system; 72-hrs, BT system (soluble readouts); 168-hrs, BT system (secreted IgG)). Each plate contained drug controls (e.g., legacy control test agent colchicine at 1.1 μM), negative controls (e.g., non-stimulated conditions) and vehicle controls (e.g., 0.1% DMSO) appropriate for each system. Direct ELISA was used to measure biomarker levels of cell-associated and cell membrane targets. Soluble factors from supernatants were quantified using either HTRF® detection, bead-based multiplex immunoassay or capture ELISA. Overt adverse effects of test agents on cell proliferation and viability (cytotoxicity) were detected by sulforhodamine B (SRB) staining, for adherent cells, and alamarBlue® reduction for cells in suspension. […]

[1] = PF-06650833 19-500 nM, tofacitinib 37-1000 nM
[2] = BioMAP profile, PF-06650833 19-500 nM, tofacitinib 37-1000 nM
[3] = BioMAP profile, tofacitinib 37-1000 nM

Row | SMILES | Number of annotated readouts with activity [1] | Overt cytotoxicity on primary human cell types [1] | Immunomodulatory activities: Decreased Activity [2] | Inflammation-related activities: Decreased Activity [2] | Additional activities in the BioMAP systems (PF-06650833 19-500 nM) | Antiproliferative effect on primary cell types [1] | Immunomodulatory activities: Increased Activity [3] | Inflammation-related activities: Increased Activity [3] | Inflammation-related activities: Modulated Activity [3] | Tissue remodeling activities: Increased Activity [3] | Cytostatic effect on B cells, vascular cell types or fibroblasts (tofacitinib 37-1000 nM)
1 | CC[C@@H]1[C@H](F)C(=O)N[C@@H]1COc1nccc2cc(C(N)=O)c(OC)cc12 [PF-06650833, 1-(((2S,3S,4S)-3-Ethyl-4-fluoro-5-oxopyrrolidin-2-yl)methoxy)-7-methoxyisoquinoline-6-carboxamide] | 14 | no evidence of overt cytotoxicity | decreased CD40, CD69, M-CSF, secreted IL-17F; also recorded: CD40, CD69, M-CSF, *sIL-17F | decreased E-selectin, MCP-1, VCAM-1, IL-6, IL-8, IL-1α, secreted TNFα, secreted PGE2; also recorded: MCP-1, VCAM-1, E-selectin, IL-6, IL-8, IL-1α, *sTNFα, *sPGE2 | modest effects in BT and CASM3C systems and concentration-related decreases in secreted IL-17F and inhibition of secreted TNFα and IL-6 at the higher two concentrations only | no antiproliferative effect | – | – | – | – | –
2 | C[C@@H]1CCN(C(=O)CC#N)C[C@@H]1N(C)c1ncnc2[nH]ccc12 [tofacitinib, 3-((3R,4R)-4-Methyl-3-(methyl(7H-pyrrolo[2,3-d]pyrimidin-4-yl)amino)piperidin-1-yl)-3-oxopropanenitrile] | 21 | no evidence of overt cytotoxicity | decreased secreted IgG, CD38, secreted IL-6, CD69, secreted IL-17F; also recorded: *sIL-6, *sIL-17F; also recorded: CD38, CD69, *sIgG, | decreased Eotaxin 3, MCP-1, VCAM-1, I-TAC, MIG, P-selectin; also recorded: MCP-1, Eot3,; also recorded: ITAC, MIG | – | selectively antiproliferative to T cells | increased secreted IL-2; also recorded: *sIL-2 | increased IL-1α, secreted PGE2; also recorded: *sPGE2 | modulated secreted TNFα; also recorded: *sTNFα | increased MMP-9 and MMP9 | no cytostatic effect
